Data as given in patent US20250145606A1 (Arcus Biosciences, Inc., priority 2023, published 2025).

Tests used:
Details in all cases: biochemical, HTRF KinEASE-TK
[1] = biological target: CSF1R (Homo sapiens (Human), UniProt P07333); assay: Inhibition of CSF1R kinase activity (HTRF KinEASE-TK)
Description: (§1) Inhibition of c-Kit, PDGFRα, PDGFRβ, CSFIR and FLT3 Kinase Activity
(§2) Compounds were evaluated to determine the potency with which they inhibit the kinase activity of the following panel of tyrosine kinases: c-Kit (SignalChem, Product #: K06-11BG), PDGFRα (SignalChem, Product #: P12-18G), PDGFRβ (SignalChem, Product #: P13-11G), CSFIR (SignalChem, Product #: C74-11G) and FLT3 (Invitrogen, Product #: PR4666C). Activity was determined as a function of phosphorylated biotinylated TK peptide generated by the transfer of phosphate from ATP as measured by the use of the HTRF KinEASE-TK assay kit (Cisbio, Product #: 62TKOPEJ). Levels of phosphorylated biotinylated TK peptide (Part 61TKOBLC of KinEASE assay kit) are quantified by its capture by phosphor-TK-Antibody-Cryptate (Part of KinEASE assay kit) and XL665-labeled Streptavidin (Part 610SAXLG of KinEASE assay kit) followed by measurement of Time-Resolved Fluorescence Resonance Energy Transfer (TR-FRET) signal. On the day of the assay, compounds were solubilized in DMSO and dispensed into a 384-well white Opti-plate (PerkinElmer, catalog #6007290) to generate a 22 point 1:2 titration. Enzyme solution was prepared for each of the tyrosine kinases in 50 mM HEPES, pH 7.4, 5 mM MgCl2 for c-Kit or 10 mM MgCl2 for FLT3, CSFIR, PDGFRa and PDGFRβ, 2 mM MnCl2, 0.01% Brij-35 and 0.01% BSA. Working enzyme concentrations were prepared for c-Kit at 2 nM (2×), PDGFRa and PDGFRß at 10 nM (2×), CSFIR at 2 nM (2×) and FLT3 at 0.4 nM (2×). Five microliters of enzyme dilution of each tyrosine kinase were added to their respective 384-well white Opti-plate pre-dispensed with compound and allowed to incubate for 1 h at rt. Utilizing the same enzyme buffer recipe, 2x substrate mixes were prepared for each enzyme as follows: For c-Kit, 1.6 μM (2×) TK substrate and 16 μM (2×) ATP (Promega, catalog #V915). For PDGFRα, 3.2 μM TK substrate and 1 μM ATP. For PDGFRβ, 3.2 μM TK substrate and 40 μM ATP. For CSFIR, […] TK substrate and 20 μM ATP. For FLT3, 3.2 μM TK substrate and 100 μM ATP. Reactions were initiated by addition of 5 μL of the respective 2x substrate mix to each well of the plates containing the respective tyrosine kinase enzymes and were allowed to proceed for 120 minutes at rt, except for FLT3, the reaction time is 45 min. Following the reaction, 10 μL of detection mix consisting of 0.2 μM (2×) of Streptavidin-XL665 and 2 μM (2×) of TK-Antibody-Cryptate prepared in detection buffer (Part 62SDBRDF of KinEASE assay kit) was added and then allowed to incubate for 60 min. The TR-FRET signal was quantified by measuring the ratio of emission at 665 nm to 620 nm after excitation at 320 nm by reading on a PerkinElmer Envision multimode reader. Compound potencies (IC50 values) were determined using a standard 4-parameter non-linear regression fit.

[2] = biological target: PDGFRβ (Homo sapiens (Human), UniProt P09619); assay: Inhibition of PDGFRβ kinase activity (HTRF KinEASE-TK)
PDGFRβ, sequence (P09619 33-1106): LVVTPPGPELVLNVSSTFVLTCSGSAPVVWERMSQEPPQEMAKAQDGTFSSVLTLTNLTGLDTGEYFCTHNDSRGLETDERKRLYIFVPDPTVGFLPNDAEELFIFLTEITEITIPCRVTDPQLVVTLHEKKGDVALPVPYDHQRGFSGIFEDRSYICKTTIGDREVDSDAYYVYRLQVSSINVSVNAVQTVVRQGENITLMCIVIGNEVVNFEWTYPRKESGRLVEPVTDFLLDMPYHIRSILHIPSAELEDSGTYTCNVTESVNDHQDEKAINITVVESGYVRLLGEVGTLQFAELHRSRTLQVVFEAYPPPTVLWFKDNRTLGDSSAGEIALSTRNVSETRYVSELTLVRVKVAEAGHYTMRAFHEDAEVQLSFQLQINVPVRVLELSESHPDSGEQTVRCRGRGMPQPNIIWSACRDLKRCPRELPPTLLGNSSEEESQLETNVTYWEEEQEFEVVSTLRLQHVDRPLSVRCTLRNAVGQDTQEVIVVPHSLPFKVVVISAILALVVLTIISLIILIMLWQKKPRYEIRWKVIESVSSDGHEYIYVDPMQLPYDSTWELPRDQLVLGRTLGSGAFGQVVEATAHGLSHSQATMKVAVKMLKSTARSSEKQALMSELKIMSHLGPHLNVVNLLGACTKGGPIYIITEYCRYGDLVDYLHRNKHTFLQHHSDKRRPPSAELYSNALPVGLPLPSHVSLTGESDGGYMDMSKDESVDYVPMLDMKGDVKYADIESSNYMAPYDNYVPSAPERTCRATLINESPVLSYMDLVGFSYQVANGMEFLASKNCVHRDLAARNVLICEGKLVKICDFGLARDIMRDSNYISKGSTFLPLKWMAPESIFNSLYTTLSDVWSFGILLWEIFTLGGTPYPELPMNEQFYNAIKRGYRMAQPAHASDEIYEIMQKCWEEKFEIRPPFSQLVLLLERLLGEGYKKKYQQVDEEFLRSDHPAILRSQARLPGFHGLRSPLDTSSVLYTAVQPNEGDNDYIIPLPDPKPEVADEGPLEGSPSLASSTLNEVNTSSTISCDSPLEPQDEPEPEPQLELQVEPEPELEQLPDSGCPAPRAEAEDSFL
Description: as §1, §2

[3] = biological target: c-Kit (Homo sapiens (Human), UniProt P10721); assay: Inhibition of c-Kit kinase activity (HTRF KinEASE-TK); format: biochemical
c-Kit, sequence (P10721 26-976): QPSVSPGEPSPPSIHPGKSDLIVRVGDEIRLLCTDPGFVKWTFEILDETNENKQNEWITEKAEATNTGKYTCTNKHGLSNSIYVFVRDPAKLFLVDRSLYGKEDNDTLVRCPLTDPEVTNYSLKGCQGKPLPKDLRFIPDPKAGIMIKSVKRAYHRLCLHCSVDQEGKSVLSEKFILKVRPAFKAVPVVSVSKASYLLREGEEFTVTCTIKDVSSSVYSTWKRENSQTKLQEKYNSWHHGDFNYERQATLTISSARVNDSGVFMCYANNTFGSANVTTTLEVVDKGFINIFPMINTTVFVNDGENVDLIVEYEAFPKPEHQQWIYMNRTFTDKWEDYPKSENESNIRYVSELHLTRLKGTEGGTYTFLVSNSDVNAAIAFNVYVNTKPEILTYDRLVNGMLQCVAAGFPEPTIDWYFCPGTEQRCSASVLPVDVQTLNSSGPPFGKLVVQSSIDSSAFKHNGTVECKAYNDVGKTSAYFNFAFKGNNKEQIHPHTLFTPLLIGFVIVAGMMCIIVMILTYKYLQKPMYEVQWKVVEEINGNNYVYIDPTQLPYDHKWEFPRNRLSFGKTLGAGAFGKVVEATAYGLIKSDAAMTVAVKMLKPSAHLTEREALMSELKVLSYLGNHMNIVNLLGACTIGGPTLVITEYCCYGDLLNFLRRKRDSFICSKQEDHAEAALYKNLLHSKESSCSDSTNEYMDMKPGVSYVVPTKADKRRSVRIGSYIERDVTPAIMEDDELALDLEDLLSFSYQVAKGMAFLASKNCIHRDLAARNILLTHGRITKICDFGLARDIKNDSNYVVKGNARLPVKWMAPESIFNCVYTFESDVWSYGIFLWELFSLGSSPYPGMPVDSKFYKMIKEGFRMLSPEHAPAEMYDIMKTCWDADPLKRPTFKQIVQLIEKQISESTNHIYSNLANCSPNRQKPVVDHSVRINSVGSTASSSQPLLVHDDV
Description: as §1, §2

[4] = biological target: PDGFRα (Homo sapiens (Human), UniProt P16234); assay: Inhibition of PDGFRα kinase activity (HTRF KinEASE-TK)
PDGFRα, sequence (P16234 24-1089): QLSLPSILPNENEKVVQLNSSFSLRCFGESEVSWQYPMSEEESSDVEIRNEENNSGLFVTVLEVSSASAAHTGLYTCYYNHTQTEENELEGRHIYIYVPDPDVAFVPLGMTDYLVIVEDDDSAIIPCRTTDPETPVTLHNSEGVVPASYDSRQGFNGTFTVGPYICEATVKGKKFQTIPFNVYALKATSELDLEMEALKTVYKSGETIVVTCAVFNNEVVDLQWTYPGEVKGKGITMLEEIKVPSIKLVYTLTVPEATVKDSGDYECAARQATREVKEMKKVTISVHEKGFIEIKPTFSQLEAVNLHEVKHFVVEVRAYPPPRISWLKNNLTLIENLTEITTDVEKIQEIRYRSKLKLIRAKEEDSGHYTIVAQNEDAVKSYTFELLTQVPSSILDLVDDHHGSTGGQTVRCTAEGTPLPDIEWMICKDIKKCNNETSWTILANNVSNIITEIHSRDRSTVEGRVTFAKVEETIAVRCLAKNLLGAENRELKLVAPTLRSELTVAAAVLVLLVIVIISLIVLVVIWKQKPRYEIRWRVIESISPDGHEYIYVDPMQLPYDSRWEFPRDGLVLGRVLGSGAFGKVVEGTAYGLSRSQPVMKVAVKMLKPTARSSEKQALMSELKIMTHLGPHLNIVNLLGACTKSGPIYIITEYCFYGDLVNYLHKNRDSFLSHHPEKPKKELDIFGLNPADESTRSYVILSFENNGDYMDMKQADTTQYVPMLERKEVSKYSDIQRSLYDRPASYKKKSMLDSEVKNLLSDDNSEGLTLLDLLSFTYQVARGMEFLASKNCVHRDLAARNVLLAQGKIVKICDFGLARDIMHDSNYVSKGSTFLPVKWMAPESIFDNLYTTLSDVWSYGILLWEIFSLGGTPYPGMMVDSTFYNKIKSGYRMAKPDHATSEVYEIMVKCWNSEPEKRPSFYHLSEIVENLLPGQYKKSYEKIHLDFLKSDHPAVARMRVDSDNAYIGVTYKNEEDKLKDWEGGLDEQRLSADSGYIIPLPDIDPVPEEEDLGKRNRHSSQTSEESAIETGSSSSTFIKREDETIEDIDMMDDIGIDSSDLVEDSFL
Description: as §1, §2

CSF1R, sequence (P07333 20-972): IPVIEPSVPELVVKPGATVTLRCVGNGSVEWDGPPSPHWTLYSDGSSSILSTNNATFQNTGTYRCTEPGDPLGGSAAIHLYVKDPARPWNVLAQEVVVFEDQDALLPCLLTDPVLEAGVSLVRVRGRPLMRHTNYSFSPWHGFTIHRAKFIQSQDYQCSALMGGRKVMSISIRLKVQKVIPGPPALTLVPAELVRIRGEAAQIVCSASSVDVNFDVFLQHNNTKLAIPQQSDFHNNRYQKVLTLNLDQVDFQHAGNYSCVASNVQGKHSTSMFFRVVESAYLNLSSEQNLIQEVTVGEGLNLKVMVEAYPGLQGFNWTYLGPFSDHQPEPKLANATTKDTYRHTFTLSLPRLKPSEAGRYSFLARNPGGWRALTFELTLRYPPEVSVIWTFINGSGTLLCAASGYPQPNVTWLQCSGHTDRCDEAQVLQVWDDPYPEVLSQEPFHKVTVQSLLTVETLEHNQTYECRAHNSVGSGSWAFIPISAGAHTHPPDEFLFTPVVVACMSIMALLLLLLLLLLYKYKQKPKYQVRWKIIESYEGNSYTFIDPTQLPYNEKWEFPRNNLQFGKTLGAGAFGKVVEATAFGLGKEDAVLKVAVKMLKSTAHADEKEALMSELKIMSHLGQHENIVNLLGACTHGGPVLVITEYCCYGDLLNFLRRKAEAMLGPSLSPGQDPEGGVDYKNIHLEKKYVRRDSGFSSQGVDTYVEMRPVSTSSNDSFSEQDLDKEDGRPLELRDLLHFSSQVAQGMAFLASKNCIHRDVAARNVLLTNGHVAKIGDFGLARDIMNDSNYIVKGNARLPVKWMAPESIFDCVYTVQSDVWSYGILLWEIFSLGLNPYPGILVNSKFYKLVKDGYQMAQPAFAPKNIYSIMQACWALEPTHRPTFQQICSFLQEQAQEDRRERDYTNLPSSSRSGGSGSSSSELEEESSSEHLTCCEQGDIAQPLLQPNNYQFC

IC50 [1] [nM]	IC50 [2] [nM]	IC50 [3] [nM]	IC50 [4] [nM]	SMILES
> 1000	> 1000	< 100	> 1000	Cc1cc(F)c(C(=O)NC2CN(C(=O)C3CC3)C2)cc1NC(=O)c1cnc(N)s1 [Example 121, 2-Amino-N-[5-[[1-(cyclopropanecarbonyl)azetidin-3-yl]carbamoyl]-4-fluoro-2-methylphenyl]-1,3-thiazole-5-carboxamide]
> 1000	> 1000	< 100	> 1000	Cc1cc(F)c(C(=O)NC2CN(c3ncccn3)C2)cc1NC(=O)c1cnc(N)s1 [Example 125, 2-Amino-N-[4-fluoro-2-methyl-5-[(1-pyrimidin-2-ylazetidin-3-yl)carbamoyl]phenyl]-1,3-thiazole-5-carboxamide]
> 1000	> 1000	< 100	100 to 1000	Cc1cc(F)c(C(=O)N[C@H]2C[C@@H](C#N)C2)cc1NC(=O)c1cnc(N)s1 [Example 126, 2-Amino-N-[5-[(3-cyanocyclobutyl)carbamoyl]-4-fluoro-2-methylphenyl]-1,3-thiazole-5-carboxamide]
> 1000	> 1000	100 to 1000	> 1000	Cc1cc(F)c(C(=O)N[C@H]2C[C@@H](C(N)=O)C2)cc1NC(=O)c1cnc(N)s1 [Example 127, 2-Amino-N-[5-[(3-carbamoylcyclobutyl)carbamoyl]-4-fluoro-2-methylphenyl]-1,3-thiazole-5-carboxamide]
100 to 1000	< 100	< 100	100 to 1000	Cc1cc(F)c(C(=O)Nc2ccn(CC3CC3)n2)cc1NC(=O)c1cnc(N)s1 [Example 151, 2-Amino-N-[5-[[1-(cyclopropylmethyl)pyrazol-3-yl]carbamoyl]-4-fluoro-2-methylphenyl]-1,3-thiazole-5-carboxamide]
100 to 1000	100 to 1000	< 100	> 1000	Cc1cc(F)c(C(=O)Nc2nc(C3CC3)cs2)cc1NC(=O)c1cnc(N)s1 [Example 170, 2-Amino-N-[5-[(4-cyclopropyl-1,3-thiazol-2-yl)carbamoyl]-4-fluoro-2-methylphenyl]-1,3-thiazole-5-carboxamide]
> 1000	> 1000	100 to 1000	> 1000	Cc1cc(F)c(C(=O)Nc2nc(C)n(C)n2)cc1NC(=O)c1cnc(N)s1 [Example 173, 2-Amino-N-[5-[(1,5-dimethyl-1,2,4-triazol-3-yl)carbamoyl]-4-fluoro-2-methylphenyl]-1,3-thiazole-5-carboxamide]

The remaining lines, values behind:

SMILES	IC50 [1] [nM]	IC50 [2] [nM]	IC50 [3] [nM]	IC50 [4] [nM]
Cc1cc(F)c(C(=O)Nc2ccc(C(C)(O)C(F)(F)F)cn2)cc1NC(=O)c1cnc(N)s1 (stereo not shown) [Example 111, 2-Amino-N-[4-fluoro-2-methyl-5-[[5-(1,1,1-trifluoro-2-hydroxypropan-2-yl)pyridin-2-yl]carbamoyl]phenyl]-1,3-thiazole-5-carboxamide]	< 100	< 100	< 100	< 100
Cc1cc(F)c(C(=O)Nc2cc3c(cn2)COC3)cc1NC(=O)c1cnc(N)s1 [Example 112, 2-Amino-N-[5-(1,3-dihydrofuro [3,4-c]pyridin-6-ylcarbamoyl)-4-fluoro-2-methylphenyl]-1,3-thiazole-5-carboxamide]	100 to 1000	100 to 1000	< 100	> 1000
Cc1cc(F)c(C(=O)Nc2ccc(C(C)(C)O)cn2)cc1NC(=O)c1cnc(N)s1 [Example 113, 2-Amino-N-[4-fluoro-5-[[5-(2-hydroxypropan-2-yl)pyridin-2-yl]carbamoyl]-2-methylphenyl]-1,3-thiazole-5-carboxamide]	100 to 1000	< 100	< 100	100 to 1000
Cc1cc(F)c(C(=O)Nc2ccc(S(C)(=O)=O)cn2)cc1NC(=O)c1cnc(N)s1 [Example 116, 2-Amino-N-[4-fluoro-2-methyl-5-[(5-methylsulfonylpyridin-2-yl)carbamoyl]phenyl]-1,3-thiazole-5-carboxamide]	100 to 1000	100 to 1000	< 100	> 1000
Cc1cc(F)c(C(=O)Nc2ccc(C3(C#N)CC3)nn2)cc1NC(=O)c1cnc(N)s1 [Example 119, 2-Amino-N-[5-[[6-(1-cyanocyclopropyl)pyridazin-3-yl]carbamoyl]-4-fluoro-2-methylphenyl]-1,3-thiazole-5-carboxamide]	100 to 1000	100 to 1000	< 100	> 1000
Cc1cc(F)c(C(=O)Nc2ccc(OC3CC3)cc2F)cc1NC(=O)c1cnc(N)s1 [Example 128]	100 to 1000	< 100	< 100	100 to 1000
Cc1cc(F)c(C(=O)Nc2ccn(C(C)(C)C)n2)cc1NC(=O)c1cnc(N)s1 [Example 141, 2-Amino-N-[5-[(1-tert-butylpyrazol-3-yl)carbamoyl]-4-fluoro-2-methylphenyl]-1,3-thiazole-5-carboxamide]	100 to 1000	< 100	< 100	< 100
Cc1cc(F)c(C(=O)Nc2ccn(CCO)n2)cc1NC(=O)c1cnc(N)s1 [Example 144, 2-Amino-N-[4-fluoro-5-[[1-(2-hydroxyethyl)pyrazol-3-yl]carbamoyl]-2-methylphenyl]-1,3-thiazole-5-carboxamide]	> 1000	> 1000	< 100	> 1000
Cc1cc(F)c(C(=O)Nc2nc3c(s2)COCC3)cc1NC(=O)c1cnc(N)s1 [Example 145, 2-Amino-N-[5-(6,7-dihydro-4H-pyrano[4,3-d][1,3]thiazol-2-ylcarbamoyl)-4-fluoro-2-methylphenyl]-1,3-thiazole-5-carboxamide]	100 to 1000	100 to 1000	< 100	> 1000
Cc1cc(F)c(C(=O)Nc2ncc(C(C)C)s2)cc1NC(=O)c1cnc(N)s1 [Example 146, 2-Amino-N-[4-fluoro-2-methyl-5-[(5-propan-2-yl-1,3-thiazol-2-yl)carbamoyl]phenyl]-1,3-thiazole-5-carboxamide]	< 100	< 100	< 100	< 100
Cc1cc(F)c(C(=O)Nc2ccn(CC(C)(C)O)n2)cc1NC(=O)c1cnc(N)s1 [Example 153, 2-Amino-N-[4-fluoro-5-[[1-(2-hydroxy-2-methylpropyl)pyrazol-3-yl]carbamoyl]-2-methylphenyl]-1,3-thiazole-5-carboxamide]	> 1000	> 1000	< 100	> 1000
Cc1nnc(NC(=O)c2cc(NC(=O)c3cnc(N)s3)c(C)cc2F)s1 [Example 162, 2-Amino-N-[4-fluoro-2-methyl-5-[(5-methyl-1,3,4-thiadiazol-2-yl)carbamoyl]phenyl]-1,3-thiazole-5-carboxamide]	100 to 1000	> 1000	< 100	> 1000
Cc1cc(F)c(C(=O)NCCCN2CCOCC2)cc1NC(=O)c1cnc(N)s1 [Example 164, 2-Amino-N-[4-fluoro-2-methyl-5-(3-morpholin-4-ylpropylcarbamoyl)phenyl]-1,3-thiazole-5-carboxamide]	> 1000	> 1000	< 100	> 1000
Cc1cc(F)c(C(=O)NCCc2ccc(F)cc2)cc1NC(=O)c1cnc(N)s1 [Example 165]	100 to 1000	< 100	< 100	100 to 1000
Cc1cc(F)c(C(=O)Nc2ccc(OC3CC3)cn2)cc1NC(=O)c1cncs1 [Example 169, N-[5-[(5-Cyclopropyloxypyridin-2-yl)carbamoyl]-4-fluoro-2-methylphenyl]-1,3-thiazole-5-carboxamide]	> 1000	> 1000	< 100	> 1000
